In patent publication US20130116277A1, “ALDO-KETO REDUCTASE SUBFAMILY 1C3 (AKR1C3) INHIBITORS” (priority 2007, published 2013):
Where “and” joins values, the source holds several entries; their conditions need not be identical. Identical values can stand only once. Like-named read-outs stand apart in the source and are kept apart here.

Assays:
AKR1C3 [1] = target: T1, AKR1C3 (Homo sapiens, UniProt P42330)
T1 sequence (P42330 1-323): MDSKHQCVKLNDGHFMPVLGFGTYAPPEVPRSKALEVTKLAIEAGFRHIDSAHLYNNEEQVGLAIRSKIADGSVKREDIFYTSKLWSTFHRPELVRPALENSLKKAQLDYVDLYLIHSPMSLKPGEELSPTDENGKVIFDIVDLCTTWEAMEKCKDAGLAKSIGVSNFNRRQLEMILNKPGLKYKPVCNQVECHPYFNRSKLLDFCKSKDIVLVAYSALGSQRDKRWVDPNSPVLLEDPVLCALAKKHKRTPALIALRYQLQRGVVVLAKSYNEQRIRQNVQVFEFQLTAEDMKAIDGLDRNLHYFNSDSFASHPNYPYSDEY
Protocol: (§1) AKR1C3 expression was checked by Western blot to ensure that the cells over-express AKR1C3. […] Medium was changed to RPMI+1% csFBS without phenol red and maintained in this medium for 3 days to reduce basal hormone levels. […] The data was plotted in SigmaPlot (Systat Software Inc.) and the IC50 values for inhibitors were calculated.
(§2) HEK-293 cells stably transfected with AKR1C3 were plated in 24 well plates and were maintained in RPMI+1% csFBS without phenol red for 2 days to reduce the basal steroid levels.

ER-α = target: T2, ER-α (Homo sapiens, UniProt P03372); test: ER-α ligand binding domain competitive binding with [3H]Estradiol
T2 sequence (P03372 311-547 limits assumed): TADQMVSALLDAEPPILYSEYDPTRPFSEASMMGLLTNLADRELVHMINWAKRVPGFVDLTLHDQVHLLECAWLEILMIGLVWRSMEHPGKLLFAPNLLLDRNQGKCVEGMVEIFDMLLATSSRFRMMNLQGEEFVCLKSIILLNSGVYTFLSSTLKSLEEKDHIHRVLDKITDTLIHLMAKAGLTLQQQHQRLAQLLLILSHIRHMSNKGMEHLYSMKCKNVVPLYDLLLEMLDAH

ER-alpha = target: T3, ER-alpha (Homo sapiens, UniProt P03372); test: ER-alpha transactivation (ERE-LUC luciferase) in HEK-293 cells; assay type: cell-based;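 note: HEK-293 cells co-transfected with an ER-alpha expression plasmid, an ERE-driven firefly luciferase reporter and a CMV Renilla control, with the firefly signal normalized to Renilla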
T3 construct: expressed in transfected cells; host or cells: HEK-293
T3 sequence (P03372 1-595): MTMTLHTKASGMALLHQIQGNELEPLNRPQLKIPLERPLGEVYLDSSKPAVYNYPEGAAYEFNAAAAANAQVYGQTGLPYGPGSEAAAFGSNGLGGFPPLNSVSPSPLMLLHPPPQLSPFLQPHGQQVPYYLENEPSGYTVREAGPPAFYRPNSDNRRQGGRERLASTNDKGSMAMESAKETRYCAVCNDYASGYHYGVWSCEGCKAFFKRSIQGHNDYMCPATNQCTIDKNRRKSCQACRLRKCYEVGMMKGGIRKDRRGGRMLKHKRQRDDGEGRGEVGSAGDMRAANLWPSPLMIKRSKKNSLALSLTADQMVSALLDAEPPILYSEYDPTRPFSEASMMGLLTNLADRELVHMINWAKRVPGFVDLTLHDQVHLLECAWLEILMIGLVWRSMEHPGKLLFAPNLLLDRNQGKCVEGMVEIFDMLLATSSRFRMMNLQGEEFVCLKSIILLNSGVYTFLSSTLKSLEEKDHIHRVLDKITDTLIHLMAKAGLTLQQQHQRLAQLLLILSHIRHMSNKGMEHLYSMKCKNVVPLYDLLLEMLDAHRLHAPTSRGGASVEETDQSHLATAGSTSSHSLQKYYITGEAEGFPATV

AKR1C3 [2] = target: T1, AKR1C3; test: cell-based
Protocol: as §1, §2

[3] = Liver microsome incubation (HLM Phase I and Phase I + II), LC-MS/MS; assay type: in vitro ADME, human; details: for microsomal CLint: human, human liver microsomes
Protocol: Stock solutions of prespective AKR1C3 inhibitors were prepared in DMSO at 5 mM and were incubated with liver microsomes (0.1 mg/mL). Incubations were conducted at 37° C. in a shaking water bath for 10 minutes (microsomes). Incubation durations were selected based on time course study (microsomes) or published literature (recombinant enzymes). Prepared samples were analyzed using LC-MS/MS.

AKR1C3 [4] = target: T1, AKR1C3; test: Purified AKR1C3 enzyme assay, [14C]-A'dione to testosterone, TLC based; assay type: biochemical; set-up: GST (N); made in house; host or cells: bacterial culture, IPTG induced (E. coli BL21-DE3 is named only for the crystallography preparation)
Protocol: Perkin Elmer; […] American Radiolabeled Chemicals, St. Louis, Mo.). The reaction was stopped by the addition of 400 μl ethyl acetate, vortexed, and spun for […] at 2000 rpm. The upper layer was transferred to a new tube and air dried. The pellet was resuspended in 25 μl of methanol, spotted on TLC plates and fractionated in TLC chamber with 3:1 chloroform:ethyl acetate. Once the mobile phase reached the top, the plates were dried and exposed to a phosphoimager screen overnight. […] Perkin Elmer) was incubated at 37° C. for 60 min. The reaction was stopped by the addition of 400 μl ethyl acetate, vortexed, and spun for […] at 2000 rpm. The upper layer was transferred to a new tube and air dried. The pellet was resuspended in 25 μl of methanol, spotted on TLC plates and fractionated in TLC chamber with 3:1 chloroform:ethyl acetate. Once the mobile phase reached the top, the plates were dried and exposed to a phosphoimager screen overnight.

ER-β = ER-β (Homo sapiens, UniProt Q92731); test: ER-β ligand binding domain competitive binding with [3H]Estradiol
ER-beta = target: T4, ER-beta (Homo sapiens, UniProt Q92731); test: ER-beta transactivation (ERE-LUC luciferase) in HEK-293 cells; assay type: cell-based;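 note: HEK-293 cells transiently transfected with an ER-β expression plasmid and ERE-LUC reporter, firefly luciferase read-out normalized to co-transfected Renilla luciferase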
T4 construct: expressed in transfected cells; host or cells: HEK-293

AKR1C3 [5] = target: T1, AKR1C3; details: 100 nM androstenedione, 24 hrs, LC-MS/MS (FIG. 2)
Protocol: as §1, §2

T4 sequence (Q92731 whole entry, species assumed): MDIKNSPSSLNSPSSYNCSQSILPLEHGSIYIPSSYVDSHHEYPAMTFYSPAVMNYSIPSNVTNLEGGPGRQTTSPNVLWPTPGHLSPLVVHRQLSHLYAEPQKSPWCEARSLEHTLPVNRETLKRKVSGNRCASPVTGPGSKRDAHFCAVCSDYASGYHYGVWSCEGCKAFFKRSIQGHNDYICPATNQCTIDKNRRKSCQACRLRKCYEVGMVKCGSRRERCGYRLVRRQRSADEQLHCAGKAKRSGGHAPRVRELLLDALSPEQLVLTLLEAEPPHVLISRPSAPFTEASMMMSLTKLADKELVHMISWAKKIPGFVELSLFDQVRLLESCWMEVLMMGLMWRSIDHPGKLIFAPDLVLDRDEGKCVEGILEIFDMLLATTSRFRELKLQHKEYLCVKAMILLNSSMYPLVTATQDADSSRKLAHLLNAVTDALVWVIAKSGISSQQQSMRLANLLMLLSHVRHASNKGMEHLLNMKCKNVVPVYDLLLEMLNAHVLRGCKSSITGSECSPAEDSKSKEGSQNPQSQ
Sequence of ER-β (Q92731 264-498 limits assumed, species assumed): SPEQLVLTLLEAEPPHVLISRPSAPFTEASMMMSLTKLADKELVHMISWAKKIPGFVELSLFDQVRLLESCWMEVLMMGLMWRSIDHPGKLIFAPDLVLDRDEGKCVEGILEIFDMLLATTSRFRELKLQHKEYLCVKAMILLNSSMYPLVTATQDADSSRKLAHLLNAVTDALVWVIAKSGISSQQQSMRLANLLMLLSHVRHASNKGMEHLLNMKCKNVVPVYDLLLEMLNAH

COc1ccc(C=CC(=O)O)cc1OC [3,4,dimethoxy cinnamic acid]
IC50 (AKR1C3 [1]): > 10000 nM

O=c1c2ccc(O)cc2c(-c2ccc(C(F)(F)F)cc2)cn1-c1ccc(O)cc1 [Compound 13, 6-hydroxy-2-(4-hydroxyphenyl)-4-(4-(trifluoromethyl)phenyl)isoquinolin-1(2H)-one]
Ki (ER-α): > 1510 nM | EC50 (ER-alpha; agonist mode, drug alone, read-out: Agonist ER-α): > 10000 nM | IC50 (ER-alpha; antagonist mode, in combination with estradiol, read-out: Antagonist ER-α): > 10000 nM | IC50 (AKR1C3 [2]): 451 nM | HLM Phase I CLint ([3]; HLM Phase I): 0.8 µL/min/mg | HLM Phase I + II CLint ([3]; HLM Phase I + II): 19.1 µL/min/mg | HLM Phase I + II T-1/2 ([3]; HLM Phase I + II): 40 min and 36.12 min | microsomal CLint ([3]; HLM Phase I + II, read-out: HLM Phase I + II CLint): 17 µL/min/mg | microsomal CLint ([3]; HLM Phase I, read-out: HLM Phase I CLint): < 1 µL/min/mg | inhibition at 10 µM (AKR1C3 [4]; 10 μM inhibitor, purified AKR1C3 TLC based enzyme assay, read-out: AKR1C3 inhibition at 10 μM): 52% | inhibition at 10 µM (AKR1C3 [4]; read-out: % inhibition from control HSD-5 (10 uM)): 52% | Ki (ER-β): 157 nM | EC50 (ER-beta; agonist mode, drug alone, read-out: Agonist ER-β): > 10000 nM | IC50 (ER-beta; antagonist mode, in combination with estradiol, read-out: Antagonist ER-β): 677 nM

NC(=O)c1ccc(-n2cc(-c3ccc(C(F)(F)F)c(F)c3)c3cc(O)ccc3c2=O)cc1 [Compound 215, 4-(4-(3-fluoro-4-(trifluoromethyl)phenyl)-6-hydroxy-1-oxoisoquinolin-2(1H)-yl)benzamide]
Inhibition of AKR1C3 dependent conversion of androstenedione to testosterone (AKR1C3 [5]): potently inhibited
